Results: ChEMBL document CHEMBL1126034, “Carboxylic acid replacement structure-activity relationships in suosan type sweeteners. A sweet taste antagonist. 1” (J Med Chem, 1992)

Tests used:
Assay type in all cases: functional
[1] = Compound was tested at the concentration of 1000(ppm) for percent sucrose intensity in aspartame solution contains concentration of 2000(ppm)
[2] = Compound was tested at the concentration of 4.0 mg/mL for percent sucrose intensity in aqueous sucrose solution (10%)
[3] = Compound was tested at the concentration of 2000(ppm) for percent sucrose intensity in aspartame solution contains concentration of 250(ppm)
[4] = Compound was tested at the concentration of 0.0 mg/mL for percent sucrose intensity in aqueous sucrose solution(5.6%)
[5] = Compound was tested at the concentration of 2.0 mg/mL for percent sucrose intensity in aqueous sucrose solution (5.6%)
[6] = Compound was tested at the concentration of 3.0 mg/mL for percent sucrose intensity in aqueous sucrose solution (5.6%)
[7] = Compound was tested at the concentration of 4000(ppm) for percent sucrose equivalent intensity in rebaudioside A aqueous solution contains concentration of 638(ppm)
[8] = Compound was tested at the concentration of 0(ppm) for bitterness rating in quinine aqueous solution contains concentration of 15(ppm)
[9] = Compound was tested at the concentration of 0(ppm) for percent sucrose intensity in aspartame solution contains concentration of 1000(ppm)
[10] = Compound was tested at the concentration of 2000(ppm) for percent sucrose intensity in aspartame solution contains concentration of 1500(ppm)
[11] = Compound was tested at the concentration of 1000(ppm) for percent sucrose intensity in aspartame solution contains concentration of 250(ppm)
[12] = Compound was tested at the concentration of 0(ppm) for percent sucrose intensity in aspartame solution contains concentration of 1500(ppm)
[13] = Compound was tested at the concentration of 4000(ppm) for percent sucrose equivalent intensity in NHDHC aqueous solution contains concentration of 250(ppm)
[14] = Compound was tested at the concentration of 1000(ppm) for percent sucrose intensity in aspartame solution contains concentration of 2500(ppm)
[15] = Compound was tested at the concentration of 0(ppm) for bitterness rating in caffiene aqueous solution contains concentration of 1100(ppm)
[16] = Compound was tested at the concentration of 1000(ppm) for percent sucrose intensity in aspartame solution contains concentration of 500(ppm)
[17] = Compound was tested at the concentration of 4000(ppm) for percent sucrose equivalent intensity in sucralose aqueous solution contains concentration of 152(ppm)
[18] = Compound was tested at the concentration of 0(ppm) for percent sucrose equivalent intensity in thaumatin aqueous solution contains concentration of 40(ppm)
[19] = Compound was tested at the concentration of 0.0 mg/mL for percent sucrose intensity in aqueous sucrose solution(12.5%)
[20] = Compound was tested at the concentration of 2.0 mg/mL for percent sucrose intensity in aqueous sucrose solution (10%)
[21] = Compound was tested at the concentration of 0.0 mg/mL for percent sucrose intensity in aqueous sucrose solution(7.5%)
[22] = Compound was tested at the concentration of 0(ppm) for percent sucrose intensity in aspartame solution contains concentration of 250(ppm)
[23] = Compound was tested at the concentration of 4000(ppm) for bitterness rating in caffiene aqueous solution contains concentration of 1100(ppm)
[24] = Compound was tested at the concentration of 3.0 mg/mL for percent sucrose intensity in aqueous sucrose solution (3.5%)
[25] = Compound was tested at the concentration of 4000(ppm) for percent sucrose intensity in aspartame solution contains concentration of 500(ppm)
[26] = Compound was tested at the concentration of 0(ppm) for percent sucrose equivalent intensity in sucrose aqueous solution contains concentration of 10000(ppm)
[27] = Compound was tested at the concentration of 4.0 mg/mL for percent sucrose intensity in aqueous sucrose solution (3.5%)
[28] = Compound was tested at the concentration of 4000(ppm) for percent sucrose equivalent intensity in acesulfame-K aqueous solution contains concentration of 1000(ppm)
[29] = Compound was tested at the concentration of 0(ppm) for percent sucrose equivalent intensity in saccharin aqueous solution contains concentration of 330(ppm)
[30] = Compound was tested at the concentration of 4000(ppm) for percent sucrose intensity in aspartame solution contains concentration of 3000(ppm)
[31] = Compound was tested at the concentration of 4000(ppm) for percent sucrose intensity in aspartame solution contains concentration of 2500(ppm)
[32] = Compound was tested at the concentration of 1000(ppm) for percent sucrose intensity in aspartame solution contains concentration of 3000(ppm)
[33] = Compound was tested at the concentration of 2.0 mg/mL for percent sucrose intensity in aqueous sucrose solution (12.5%)
[34] = Compound was tested at the concentration of 0(ppm) for percent sucrose equivalent intensity in acesulfame-K aqueous solution contains concentration of 1000(ppm)
[35] = Compound was tested at the concentration of 4000(ppm) for bitterness rating in naringin aqueous solution contains concentration of 290(ppm)
[36] = Compound was tested at the concentration of 3.0 mg/mL for percent sucrose intensity in aqueous sucrose solution (10%)
[37] = Compound was tested at the concentration of 0.0 mg/mL for percent sucrose intensity in aqueous sucrose solution(3.5%)
[38] = Compound was tested at the concentration of 2000(ppm) for percent sucrose intensity in aspartame solution contains concentration of 2500(ppm)
[39] = Compound was tested at the concentration of 2000(ppm) for percent sucrose intensity in aspartame solution contains concentration of 500(ppm)
[40] = Compound was tested at the concentration of 4000(ppm) for percent sucrose equivalent intensity in sucrose aqueous solution contains concentration of 10000(ppm)
[41] = Compound was tested at the concentration of 0(ppm) for percent sucrose intensity in aspartame solution contains concentration of 750(ppm)
[42] = Compound was tested at the concentration of 3.0 mg/mL for percent sucrose intensity in aqueous sucrose solution (12.5%)
[43] = Compound was tested at the concentration of 2000(ppm) for percent sucrose intensity in aspartame solution contains concentration of 2000(ppm)
[44] = Compound was tested at the concentration of 0.0 mg/mL for percent sucrose intensity in aqueous sucrose solution( 10%)
[45] = Compound was tested at the concentration of 4.0 mg/mL for percent sucrose intensity in aqueous sucrose solution (5.6%)
[46] = Compound was tested at the concentration of 0(ppm) for percent sucrose equivalent intensity in rebaudioside A aqueous solution contains concentration of 638(ppm)
[47] = Compound was tested at the concentration of 1000(ppm) for percent sucrose intensity in aspartame solution contains concentration of 750(ppm)
[48] = Compound was tested at the concentration of 3.0 mg/mL for percent sucrose intensity in aqueous sucrose solution (7.5%)
[49] = Compound was tested at the concentration of 4000(ppm) for percent sucrose equivalent intensity in thaumatin aqueous solution contains concentration of 40(ppm)
[50] = Compound was tested at the concentration of 4000(ppm) for bitterness rating in quinine aqueous solution contains concentration of 15(ppm)
[51] = Compound was tested at the concentration of 0(ppm) for percent sucrose equivalent intensity in NHDHC aqueous solution contains concentration of 250(ppm)
[52] = Compound was tested at the concentration of 4000(ppm) for percent sucrose intensity in aspartame solution contains concentration of 1000(ppm)
[53] = Compound was tested at the concentration of 0(ppm) for percent sucrose equivalent intensity in aspartame aqueous solution contains concentration of 750(ppm)
[54] = Compound was tested at the concentration of 1000(ppm) for percent sucrose intensity in aspartame solution contains concentration of 1500(ppm)
[55] = Compound was tested at the concentration of 0(ppm) for percent sucrose equivalent intensity in sucralose aqueous solution contains concentration of 152(ppm)
[56] = Compound was tested at the concentration of 4000(ppm) for percent sucrose equivalent intensity in MAG aqueous solution contains concentration of 3000(ppm)
[57] = Compound was tested at the concentration of 0(ppm) for percent sucrose intensity in aspartame solution contains concentration of 2000(ppm)
[58] = Compound was tested at the concentration of 4000(ppm) for percent sucrose intensity in aspartame solution contains concentration of 750(ppm)
[59] = Compound was tested at the concentration of 0(ppm) for percent sucrose equivalent intensity in MAG aqueous solution contains concentration of 3000(ppm)
[60] = Compound was tested at the concentration of 4.0 mg/mL for percent sucrose intensity in aqueous sucrose solution (12.5%)
[61] = Compound was tested at the concentration of 2000(ppm) for percent sucrose intensity in aspartame solution contains concentration of 1000(ppm)
[62] = Compound was tested at the concentration of 4000(ppm) for percent sucrose equivalent intensity in saccharin aqueous solution contains concentration of 330(ppm)
[63] = Compound was tested at the concentration of 0(ppm) for percent sucrose intensity in aspartame solution contains concentration of 2500(ppm)
[64] = Compound was tested at the concentration of 4000(ppm) for percent sucrose intensity in aspartame solution contains concentration of 2000(ppm)
[65] = Compound was tested at the concentration of 1000(ppm) for percent sucrose intensity in aspartame solution contains concentration of 1000(ppm)
[66] = Compound was tested at the concentration of 4000(ppm) for percent sucrose intensity in aspartame solution contains concentration of 1500(ppm)
[67] = Compound was tested at the concentration of 4000(ppm) for percent sucrose intensity in aspartame solution contains concentration of 250(ppm)
[68] = Compound was tested at the concentration of 4000(ppm) for percent sucrose equivalent intensity in aspartame aqueous solution contains concentration of 750(ppm)
[69] = Compound was tested at the concentration of 0(ppm) for bitterness rating in naringin aqueous solution contains concentration of 290(ppm)
[70] = Compound was tested at the concentration of 2.0 mg/mL for percent sucrose intensity in aqueous sucrose solution (3.5%)
[71] = Compound was tested at the concentration of 0(ppm) for percent sucrose intensity in aspartame solution contains concentration of 3000(ppm)
[72] = Compound was tested at the concentration of 0(ppm) for percent sucrose equivalent intensity in Na cyclamate aqueous solution contains concentration of 5000(ppm)
[73] = Compound was tested at the concentration of 2.0 mg/mL for percent sucrose intensity in aqueous sucrose solution (7.5%)
[74] = Compound was tested at the concentration of 0(ppm) for percent sucrose intensity in aspartame solution contains concentration of 500(ppm)
[75] = Compound was tested at the concentration of 2000(ppm) for percent sucrose intensity in aspartame solution contains concentration of 750(ppm)
[76] = Compound was tested at the concentration of 2000(ppm) for percent sucrose intensity in aspartame solution contains concentration of 3000(ppm)
[77] = Compound was tested at the concentration of 4000(ppm) for percent sucrose equivalent intensity in Na cyclamate aqueous solution contains concentration of 5000(ppm)
[78] = Compound was tested at the concentration of 4.0 mg/mL for percent sucrose intensity in aqueous sucrose solution (7.5%)

SMILES: N#Cc1ccc(NC(=O)NCS(=O)(=O)O)cc1
- Sweetness potency [1]: 10.5 0-15 scale
- Sweetness potency [2]: 4.5 0-15 scale
- Sweetness potency [3]: 2.11 0-15 scale
- Sweetness potency [4]: 6.1 0-15 scale
- Sweetness potency [5]: 3.6 0-15 scale
- Sweetness potency [6]: 2.2 0-15 scale
- Sweetness potency [7]: 3.11 0-15 scale
- Bitter taste intensity [8]: 11.8 0-15 scale
- Sweetness potency [9]: 10.1 0-15 scale
- Sweetness potency [10]: 8.35 0-15 scale
- Sweetness potency [11]: 3.3 0-15 scale
- Sweetness potency [12]: 11.4 0-15 scale
- Sweetness potency [13]: 5.98 0-15 scale
- Sweetness potency [14]: 10.2 0-15 scale
- Bitter taste intensity [15]: 8.48 0-15 scale
- Sweetness potency [16]: 5.98 0-15 scale
- Sweetness potency [17]: 1.43 0-15 scale
- Sweetness potency [18]: 8.86 0-15 scale
- Sweetness potency [19]: 12.3 0-15 scale
- Sweetness potency [20]: 7.3 0-15 scale
- Sweetness potency [21]: 8.5 0-15 scale
- Sweetness potency [22]: 5.34 0-15 scale
- Bitter taste intensity [23]: 4.77 0-15 scale
- Sweetness potency [24]: 1.6 0-15 scale
- Sweetness potency [25]: 2.57 0-15 scale
- Sweetness potency [26]: 9.6 0-15 scale
- Sweetness potency [27]: 1.2 0-15 scale
- Sweetness potency [28]: 4.59 0-15 scale
- Sweetness potency [29]: 8.15 0-15 scale
- Sweetness potency [30]: 7.82 0-15 scale
- Sweetness potency [31]: 8.86 0-15 scale
- Sweetness potency [32]: 10.7 0-15 scale
- Sweetness potency [33]: 9.3 0-15 scale
- Sweetness potency [34]: 7.88 0-15 scale
- Bitter taste intensity [35]: 7.8 0-15 scale
- Sweetness potency [36]: 6.5 0-15 scale
- Sweetness potency [37]: 4 0-15 scale
- Sweetness potency [38]: 8.95 0-15 scale
- Sweetness potency [39]: 4.48 0-15 scale
- Sweetness potency [40]: 3.23 0-15 scale
- Sweetness potency [41]: 9.78 0-15 scale
- Sweetness potency [42]: 8.6 0-15 scale
- Sweetness potency [43]: 9.35 0-15 scale
- Sweetness potency [44]: 10.1 0-15 scale
- Sweetness potency [45]: 1.3 0-15 scale
- Sweetness potency [46]: 7.62 0-15 scale
- Sweetness potency [47]: 7.43 0-15 scale
- Sweetness potency [48]: 4.2 0-15 scale
- Sweetness potency [49]: 6.23 0-15 scale
- Bitter taste intensity [50]: 5.73 0-15 scale
- Sweetness potency [51]: 8.85 0-15 scale
- Sweetness potency [52]: 5.85 0-15 scale
- Sweetness potency [53]: 9.88 0-15 scale
- Sweetness potency [54]: 9.62 0-15 scale
- Sweetness potency [55]: 8.52 0-15 scale
- Sweetness potency [56]: 5.28 0-15 scale
- Sweetness potency [57]: 12 0-15 scale
- Sweetness potency [58]: 4.46 0-15 scale
- Sweetness potency [59]: 6.97 0-15 scale
- Sweetness potency [60]: 6.4 0-15 scale
- Sweetness potency [61]: 7.34 0-15 scale
- Sweetness potency [62]: 4.06 0-15 scale
- Sweetness potency [63]: 12.9 0-15 scale
- Sweetness potency [64]: 6.91 0-15 scale
- Sweetness potency [65]: 8.83 0-15 scale
- Sweetness potency [66]: 6.44 0-15 scale
- Sweetness potency [67]: 1.37 0-15 scale
- Sweetness potency [68]: 3.87 0-15 scale
- Bitter taste intensity [69]: 10.5 0-15 scale
- Sweetness potency [70]: 2.3 0-15 scale
- Sweetness potency [71]: 11.4 0-15 scale
- Sweetness potency [72]: 10.1 0-15 scale
- Sweetness potency [73]: 4.9 0-15 scale
- Sweetness potency [74]: 7.55 0-15 scale
- Sweetness potency [75]: 6.24 0-15 scale
- Sweetness potency [76]: 9.11 0-15 scale
- Sweetness potency [77]: 6.05 0-15 scale
- Sweetness potency [78]: 3.3 0-15 scale
